In patent publication US20160022599A1, “System and Method for Fabrication of Uniform Polymer Films Containing Nano and Micro Particles via Continuous Drying Process” (NEW JERSEY INSTITUTE OF TECHNOLOGY, priority 2013, published 2016):
Values after ≈ are worked out from the molar mass of the structure shown. One block for each compound: values may come before it.

Columns and labels:
[1] = USP IV flow-through cell dissolution of films in SDS solution; assay type: physicochemical
Procedure: The dissolution experiments were performed by cutting out a ⅜ inch diameter sample of film and placing it into a flow-though cell dissolution apparatus (USP IV, Sotax, Switzerland) while 118 mL (5.4 mg/mL) aqueous SDS passed through cells (internal diameter of 22.6 mm) at a rate of 16 mL per minute. The amount of API dissolved from the film was measured over time until 100% of drug was released.
Dissolution experiments were performed using a flow-through cell dissolution apparatus (USP IV, Sotax, Switzerland) with cells of an internal diameter of 22.6 mm. Films were horizontally positioned in the cells with glass beads (1 mm in diameter) filling up the conical part at the bottom of each cell. Glass microfiber filters (GF/D grade, Whatman, Schenectady, N.Y., USA) were used in the filter-head. The temperature was maintained at 37±0.5° C. and a flow rate of 15 mL/min was used.
During testing, the dissolution medium (20 mM SDS solution, 100 mL) was circulated by pumping it through each cell. Six samples were used and the average drug release and the standard deviation were plotted as a function of time.
The dissolution behavior of the stripfilms made using the blend (HPMC and PVP) strip films containing GF nanoparticles was examined using a flow-through cell dissolution apparatus (USP IV, Sotax, Switzerland) with cells of an internal diameter of 22.6 mm. Six circular film samples (having an area of 0.712 cm^2) were punched out of each film and tested. For each film, six samples were horizontally positioned in the six cells with 6.5 g of glass beads (1 mm in diameter) filling up the conical part at the bottom of each cell. Pall HT Tuffryn Membrane Disc Filters (0.2 μm) were used for this study in the filter-head in each experiment. The temperature was maintained at 37±0.5° C., and a flow rate of 16 ml/min was used. During testing, a 100 ml dissolution medium (SDS solution (5.4 mg/ml)) was circulated by pumping it through each cell. […]

[2] = USP IV flow-through cell dissolution of films in deionized water; assay type: physicochemical; settings: DI water media
Procedure: Therefore, for the present disclosure, a flow-through cell dissolution apparatus (USP 4, Sotax, Switzerland) with cells of an internal diameter of 22.6 mm was employed. Circular film samples (having an area of 0.712 cm^2) were horizontally positioned in the cells with glass beads (1 mm in diameter) filling the top and bottom of each cell. […] The temperature was maintained at 37±0.5° C. and a flow rate of 16 mL/min was used. Dissolution experiments were carried out using two different media. […] For the second case, deionized (DI) water was used as the media. Six samples were used from each film (S-S8) and the average drug release was plotted as a function of time. To better understand the effect of SDIs on rate of drug release from HPMC films, two new formulations were prepared (formulation S7 and S8). In the first case a high molecular weight HPMC (E4M, Dow chemicals) was used to prepare films loaded with GF nanoparticles. In the second a higher concentration of HPMC ([…]) was used to prepare films containing GF nanoparticles (following the same procedure stated above). The percent drug loading and film thickness were kept same as formulations S-S8 and same dissolution testing protocols were followed. The release kinetics of GF from HPMC films was determined by finding the best fit for the release profiles. […]

[3] = cited from earlier work
[4] = cited from earlier work; remark: listed apart in the source
[5] = cited from earlier work; remark: listed apart in the source
[6] = Film disintegration time in water; assay type: physicochemical; settings: ⅝ inch diameter film in 10 ml of water; film about 16 micrometer (Example 8)
Procedure: The drying temperature was kept constant at 60° C. Casting thickness was adjusted to 200 micron thickness using a Doctor blade film applicator. The film was dried for about 30 min, and the dried film thickness was measured to be about 16 micrometer. The disintegration time of dried films was noted by placing a ⅝ inch diameter film in 10 ml of water. The time taken by the film to disintegrate completely was about 10 seconds.

[7] = Drug particle size (laser diffraction / DLS) in suspension and after re-dispersion from films; assay type: physicochemical; settings: for d50, Tip Speed: 11.72 m/s / d50, Tip Speed: 14.66 m/s: WSMM, 100 μm media; for median size of suspension after milling of drug alone: no stabilizers
Procedure: An aliquot of the suspensions was dispersed in a 10 ml stabilizer solution and the particle size of the suspensions was measured using a Beckman Coulter LS13320 after milling. The resulting drug suspensions were mixed with a 10% w/w solution of HPMC E15LV and glycerin in a ratio of 1:1, drug suspension to polymer solution. This suspension was stirred for 3 hours with a dual-propeller mixer (McMaster, Catalog no. 3471K5, Los Angeles, Calif., USA). The particle size of the suspensions was measured after mixing with the polymer solution to check for particle growth.
The term “median size” here refers to the 50% vol. passing size of the cumulative volume distribution in LD and cumulant or z-average mean size in DLS. The griseofulvin particle size above 160 nm was measured in LD and the sizes below were measured using DLS. […] The particle size of un-milled drug suspension (in the presence of stabilizers), was also measured and referred as the 0th minute particle size.
GF nanosuspensions were produced via WSMM utilizing a Microcermill (NETZSCH, Fine particle technology LLC, Exton, Pa.) as per previously described methods and processing conditions. HPMC and SDS were chosen as stabilizers. […] At the end of milling, a sample was taken from the holding tank of the mill and dispersed into 15 mL HPMC-SDS stabilizers solution (using a pipette) and the particle size distribution of GF in the sample was then measured using laser diffraction in Coulter LS13320 (Beckman Coulter, Miami, Fla.).
The particle size distribution of GF was measured in suspensions after milling, after mixing with polymer solutions (S-S8) and from re-dispersed films using a laser diffraction technique. […] The size of SDIs (SSG, CCS and CP) was recorded for three cases: after incorporation into HPMC solution, before and after addition of GF nano-suspension and after film re-dispersion. Film re-dispersion was performed by dissolving a small piece of film (about 0.712 cm^2 in area) into 10 mL DI water followed by vortex mixing for 1 min. The same procedure was also followed for formulations S4-S8. Each experiment was performed in triplicate. […]
Particle size measurement of drug nanoparticles in suspension is described herein. To re-disperse drug particles from films, circular punches of film of about 0.71 cm^2 in area were vortex mixed in 3 mL of DI water for 3-5 minutes.
The particle size distribution of GF in the nano-suspensions was measured by laser diffraction in Coulter LS13320 (Beckman Coulter, Miami, Fla., USA). A sample of the suspension was taken at the end of milling from the holding tank of the mill. The sample was dispersed in 15 ml HPMC-SDS stabilizer solution by stirring with a pipette. The sample was added drop-wise until the polarization intensity differential scattering (PIDS) reached 40%.
The same method was used to measure the particles size of GF nanoparticles re-dispersed in water from films. […] The sample particle size was measured after 10 min of magnetic stirring.

Compound: NC(=O)N=NC(N)=O [AZD, azodicarbonamide]
dissolution profiles of films with vs without SDS ([1]; SDS media, similarity and difference factors): statistically similar dissolution profiles with and without SDS
dissolution profiles of films with vs without SDS [2]: statistically similar dissolution profiles with and without SDS
Solubility in water at 4° C. [3]: 35.0 µg/mL (≈ 302 µM)
logP ([4]; Table 23): 5.8
pKa [5]: 3.9

percent griseofulvin dissolved within five minutes ([1]; 0.025 M SDS, about 18 micron HPMC film, 70 nm nanoparticles (Example 8)): about 100%
disintegration time of dried film [6]: about 10 seconds
d50, Tip Speed: 11.72 m/s ([7]; time 0): 21.845 microns
d50, Tip Speed: 14.66 m/s ([7]; time 0): 21.845 microns
d50, Tip Speed: 11.72 m/s ([7]; time 4): 1.378 microns
d50, Tip Speed: 14.66 m/s ([7]; time 4): 0.479 microns
d50, Tip Speed: 11.72 m/s ([7]; time 8): 0.378 microns
d50, Tip Speed: 14.66 m/s ([7]; time 8): 0.267 microns
d50, Tip Speed: 11.72 m/s ([7]; time 16): 0.149 microns
d50, Tip Speed: 14.66 m/s ([7]; time 16): 0.134 microns
d50, Tip Speed: 11.72 m/s ([7]; time 32): 0.122 microns
d50, Tip Speed: 14.66 m/s ([7]; time 32): 0.112 microns
d50, Tip Speed: 11.72 m/s ([7]; time 64): 0.106 microns
d50, Tip Speed: 14.66 m/s ([7]; time 64): 0.087 microns
d50, Tip Speed: 11.72 m/s ([7]; time 120): 0.084 microns
d50, Tip Speed: 14.66 m/s ([7]; time 120): 0.069 microns
d50, Tip Speed: 11.72 m/s ([7]; time 180): 0.069 microns
d50, Tip Speed: 14.66 m/s ([7]; time 180): 0.061 microns
d50, Tip Speed: 11.72 m/s ([7]; time 240): 0.067 microns
d50, Tip Speed: 14.66 m/s ([7]; time 240): 0.064 microns
d50, Tip Speed: 11.72 m/s ([7]; time 300): 0.062 microns
d50, Tip Speed: 14.66 m/s ([7]; time 300): 0.059 microns
d50, Tip Speed: 11.72 m/s ([7]; time 360): 0.060 microns
d50, Tip Speed: 14.66 m/s ([7]; time 360): 0.056 microns
median size of suspension after milling of drug alone [7]: 4 um
final particle size at 360 min of milling ([7]; tip speed 11.72 m/s): 60 nm
final particle size at 360 min of milling ([7]; tip speed 14.66 m/s): 56 nm
Compound: COC1=CC(=O)C[C@@H](C)[C@]12Oc1c(Cl)c(OC)cc(OC)c1C2=O [GF, griseofulvin]
particle size stability of nanosuspension on storage ([7]; 7 days of storage): the particle size was stable after 7 days of storage
solubility in water ([3]; as quoted): 0.7 µg/mL (≈ 1.98 µM)
partition co-efficient, log P ([4]; as quoted): 1.1

median size of nanoparticles milled in the presence of HPMC alone [7]: 147 nm
median size of suspension after milling of drug alone [7]: 12 um
Compound: COc1ccc2cc([C@H](C)C(=O)O)ccc2c1 [NPX, naproxen]

% of GF released in 50 minutes ([1]; SDS solution […], FIG. 47): 40%
Compound: COC1=CC(=O)C[C@@H](C)[C@]12Oc1c(Cl)c(OC)cc(OC)c1C2=O [as received powder, griseofulvin]
